Assay results taken from PubChem BioAssay (NCI).
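A five-concentration, 48-hour dose response in 96-well plates underlies each endpoint, interpolated linearly between surrounding concentrations. TGI is the concentration that stops growth completely.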

Columns and labels:
Experiment in all cases: NCI tumour cell line growth inhibition, 48 h
SK-MEL-5 melanoma = tested on: SK-MEL-5 melanoma
UACC-257 melanoma = tested on: UACC-257 melanoma
NCI-H23 lung = tested on: NCI-H23 lung
OVCAR-5 ovarian = tested on: OVCAR-5 ovarian
DU-145 prostate = tested on: DU-145 prostate
NCI-H226 lung = tested on: NCI-H226 lung
M14 melanoma = tested on: M14 melanoma
MOLT-4 leukemia = tested on: MOLT-4 leukemia
UO-31 renal = tested on: UO-31 renal
PC-3 prostate = tested on: PC-3 prostate
IGROV1 ovarian = tested on: IGROV1 ovarian
HCT-116 colon = tested on: HCT-116 colon
SK-MEL-2 melanoma = tested on: SK-MEL-2 melanoma
COLO 205 colon = tested on: COLO 205 colon
OVCAR-3 ovarian = tested on: OVCAR-3 ovarian
MALME-3M melanoma = tested on: MALME-3M melanoma
RXF 393 renal = tested on: RXF 393 renal
K-562 leukemia = tested on: K-562 leukemia
MDA-N = tested on: MDA-N
NCI-H522 lung = tested on: NCI-H522 lung
SK-OV-3 ovarian = tested on: SK-OV-3 ovarian
T-47D breast = tested on: T-47D breast
ACHN renal = tested on: ACHN renal
BT-549 breast = tested on: BT-549 breast
MDA-MB-435 = tested on: MDA-MB-435
EKVX NSCLC = tested on: EKVX NSCLC
A498 renal = tested on: A498 renal

Measured: TGI

Clc1ccc(-c2cc(-c3cc(-c4ccc(Cl)cc4)n[nH]3)[nH]n2)cc1
> 100 µM: all assays above
